As a reminder, the melting point is the temperature of the solid-liquid transition.

Our source for the melting point values is patent publication US20080045477A1, “Series Of New 4,6-Diamino-1,2-Dihydro-1-Aryl-1,3,5-Triazines, Substituted By An Adamantyl Moiety In The Position 2 Of Triazine-Their Corresponding Salts, Isomers,Steroisomers, Enantiomers, Free Bases And The Complexes Of All The Above With Natural Macromolecules And Their Synthetic Derivatives” (priority 2001, published 2008).

On to `NC1=NC(C23CC4CC(CC(C4)C2)C3)N(c2ccc(Cl)cc2)C(N)=N1` (stereo not shown) [Example free base, 4,6-Diamino-1,2-dihydro-1-(4-chlorophenyl)-2-(1-tricyclo[3.3.1.1^3,7]decyl)-1,3,5-triazine], for which the melting point was 168 to 170 °C.
